Test results from patent US20250296959A1, “B7-H3 TARGETING PEPTIDES AND CONSTRUCTS THEREOF” (Mariana Oncology Inc., priority 2024, published 2025).
Starred links: 1 amine or outer side, 2 acyl side, 3 side chain; linkers in the order of their positions; H or OH if unused. Positions of bridges follow the written chain, without caps; N, C: chain ends. Non-standard residues stand in square brackets, D forms with d. Residues, ends and D or L forms follow the SMILES beside them. ξ: configuration not given here. *: point of attachment. Ala(piperidin-4-yl) = O=C([C@H](CC1CCN([*:3])CC1)N[*:1])[*:2]; DOTA = O=C(O)CN1CCN(CC(=O)O)CCN(CC(=O)*)CCN(CC(=O)O)CC1; X5 = O=C(O)CC1CCN(CC(=O)O)CCN(CC(=O)O)CCN(CC(=O)*)CC1; Phe(4-NHCONH2) = NC(=O)Nc1ccc(C[C@H](N)C(=O)O)cc1; Trp(5-F) = N[C@@H](Cc1c[nH]c2ccc(F)cc12)C(=O)O; X1 = C[C@@H](c1ccccc1)[C@H](N[*:1])C(=O)[*:2]; 1Nal = N[C@@H](Cc1cccc2ccccc12)C(=O)O; Ala(4-THP) = N[C@@H](CC1CCOCC1)C(=O)O; Val(3-OH) = CC(C)(O)[C@H](N)C(=O)O; 4Pal = N[C@@H](Cc1ccncc1)C(=O)O; Chg = N[C@H](C(=O)O)C1CCCCC1; Tle = CC(C)(C)[C@H](N)C(=O)O; hLeu = CC(C)CC[C@H](N)C(=O)O; Nle = CCCC[C@H](N)C(=O)O; ξP = O=C(O)C1CCCN1

Each compound was assayed against T1, human 4lg B7-H3 (Homo sapiens, UniProt Q5ZPR3) (assay: Affinity determination by surface plasmon resonance (SPR) to 4Ig B7-H3). Conditions: SPR KD—25° C., 4Ig B7-H3; 25° C. flow cell temperature.
T1 sequence (Q5ZPR3 29-534): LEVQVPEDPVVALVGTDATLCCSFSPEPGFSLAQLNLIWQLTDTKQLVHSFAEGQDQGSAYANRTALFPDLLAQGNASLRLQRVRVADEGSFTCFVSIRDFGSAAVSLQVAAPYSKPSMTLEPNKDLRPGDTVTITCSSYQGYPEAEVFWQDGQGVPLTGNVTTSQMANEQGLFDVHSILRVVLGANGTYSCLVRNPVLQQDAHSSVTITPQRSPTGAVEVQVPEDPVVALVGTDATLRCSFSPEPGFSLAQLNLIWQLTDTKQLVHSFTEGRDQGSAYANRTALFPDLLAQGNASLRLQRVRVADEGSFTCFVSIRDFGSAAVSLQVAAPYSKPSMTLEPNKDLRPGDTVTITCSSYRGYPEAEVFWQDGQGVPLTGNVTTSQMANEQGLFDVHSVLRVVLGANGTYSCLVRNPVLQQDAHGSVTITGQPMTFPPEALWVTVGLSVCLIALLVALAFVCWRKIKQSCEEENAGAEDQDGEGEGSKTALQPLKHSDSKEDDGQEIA

Row | Kd [nM] | SMILES
1 | 1 to 10 | COc1ccc(C[C@@H]2NC(=O)[C@H](C(C)C)NC(=O)[C@H](CC(=O)O)NC(=O)[C@H](Cc3ccncc3)NC(=O)[C@H](CCCCNC(=O)CN3CCN(CC(=O)O)CCN(CC(=O)O)CCN(CC(=O)O)CC3)NC(=O)CNC(=O)[C@H](C(C)C)NC(=O)[C@@H](NC(=O)[C@H](Cc3ccc(O)cc3)NC(=O)[C@H](CCC(C)C)NC(C)=O)CSSC[C@@H](C(=O)N[C@@H](Cc3cccc4ccccc34)C(=O)N[C@@H](Cc3ccccc3)C(=O)N3CCCC3C(N)=O)NC2=O)cc1 (stereo partly drawn) [compound 309, Ac-hLeu-Y-C-V-G-Lys(DOTA)-4PyA-D-V-OMeTyr-C-1Nal-F-Pro-CONH2] (Ac-[hLeu]YCVGK(DOTA)[4Pal]DVY(Me)C[1Nal]F[ξP]-NH2; disulfide 3-11)
2 | 1 to 10 | CCCC[C@H](NC(C)=O)C(=O)N[C@@H](Cc1ccc(O)cc1)C(=O)N[C@H]1CSSC[C@@H](C(=O)N[C@@H](Cc2c[nH]c3ccccc23)C(=O)N[C@@H](Cc2ccccc2)C(=O)N[C@H](C(=O)N[C@H](CCCCNC(=O)CN2CCC(CC(=O)O)CCN(CC(=O)O)CCN(CC(=O)O)CC2)C(N)=O)[C@@H](C)O)NC(=O)[C@H](Cc2ccc(O)cc2)NC(=O)[C@H](C(C)C)NC(=O)[C@H](CC(=O)O)NC(=O)[C@H](Cc2ccc(O)cc2)NC(=O)[C@H](CCCCN)NC(=O)CNC(=O)[C@H](C(C)C)NC1=O (stereo partly drawn) [Cpd #27, Ac-Nle-Y-C-V-G-K-Y-D-V-Y-C-W-F-Thr-dLys(DOTA)-CONH2] (Ac-[Nle]YCVGKYDVYCWFT[dK](X5)-NH2; disulfide 3-11)
3 | < 1 | CC(=O)N[C@@H](CCC(C)C)C(=O)N[C@@H](Cc1ccc(O)cc1)C(=O)N[C@H]1CSSC[C@@H](C(=O)N[C@@H](Cc2c[nH]c3ccccc23)C(=O)N[C@@H](Cc2ccccc2)C(=O)N[C@H](C(=O)N[C@H](CCCCNC(=O)CN2CCN(CC(=O)O)CCN(CC(=O)O)CCN(CC(=O)O)CC2)C(N)=O)[C@@H](C)O)NC(=O)[C@H](Cc2ccc(O)cc2)NC(=O)[C@H](C2CCCCC2)NC(=O)[C@H](CC(=O)O)NC(=O)[C@H](Cc2ccncc2)NC(=O)[C@H](CCCCN)NC(=O)CNC(=O)[C@H](C(C)(C)C)NC1=O [compound 152, Ac-hLeu-Y-C-Tbg-G-K-4PyA-D-ChG-Y-C-W-F-Thr-dLys(DOTA)-CONH2] (Ac-[hLeu]YC[Tle]GK[4Pal]D[Chg]YCWFT[dK](DOTA)-NH2; disulfide 3-11)

Same assay, conditions: SPR KD—37° C., 4Ig B7-H3; 37° C. flow cell temperature

Row | Kd [nM] | SMILES
4 | 10 to 100 | CC(=O)N[C@@H](CCC(C)C)C(=O)N[C@@H](Cc1ccc(O)cc1)C(=O)N[C@H]1CSSC[C@@H](C(=O)N[C@@H](Cc2c[nH]c3ccc(F)cc23)C(=O)N[C@@H](Cc2ccccc2)C(=O)N[C@H](C(=O)N[C@H](CCCCNC(=O)CN2CCN(CC(=O)O)CCN(CC(=O)O)CCN(CC(=O)O)CC2)C(=O)O)C(C)(C)O)NC(=O)[C@H](Cc2ccc(O)cc2)NC(=O)[C@H]([C@@H](C)O)NC(=O)[C@H](CC(=O)O)NC(=O)[C@H](CC2CCOCC2)NC(=O)[C@H](CCCCN)NC(=O)CNC(=O)[C@H](C(C)(C)C)NC1=O [compound 377, Ac-hLeu-Y-C-Tbg-G-K-ThpA-D-Thr-Y-C-5FW-F-hydroxyVal-dLys(DOTA)-COOH] (Ac-[hLeu]YC[Tle]GK[Ala(4-THP)]DTYC[Trp(5-F)]F[Val(3-OH)][dK](DOTA)-OH; disulfide 3-11)
5 | 1 to 10 | CCCC[C@H](NC(C)=O)C(=O)N[C@@H](Cc1ccc(O)cc1)C(=O)N[C@H]1CSSC[C@@H](C(=O)N[C@@H](Cc2c[nH]c3ccccc23)C(=O)N[C@@H](Cc2ccccc2)C(=O)N[C@H](C(=O)N[C@H](CCCCNC(=O)CN2CCC(CC(=O)O)CCN(CC(=O)O)CCN(CC(=O)O)CC2)C(N)=O)[C@@H](C)O)NC(=O)[C@H](Cc2ccc(O)cc2)NC(=O)[C@H](C(C)C)NC(=O)[C@H](CC(=O)O)NC(=O)[C@H](Cc2ccc(O)cc2)NC(=O)[C@H](CCCCN)NC(=O)CNC(=O)[C@H](C(C)C)NC1=O (stereo partly drawn) [Cpd #27, Ac-Nle-Y-C-V-G-K-Y-D-V-Y-C-W-F-Thr-dLys(DOTA)-CONH2] (Ac-[Nle]YCVGKYDVYCWFT[dK](X5)-NH2; disulfide 3-11)
6 | < 1 | CC(=O)N[C@@H](CCC(C)C)C(=O)N[C@@H](Cc1ccc(O)cc1)C(=O)N[C@H]1CSSC[C@@H](C(=O)N[C@@H](Cc2c[nH]c3ccc(F)cc23)C(=O)N[C@H](C(=O)N[C@H](C(=O)N[C@H](CCCCNC(=O)CN2CCN(CC(=O)O)CCN(CC(=O)O)CCN(CC(=O)O)CC2)C(=O)O)C(C)(C)O)[C@@H](C)c2ccccc2)NC(=O)[C@H](Cc2ccc(NC(N)=O)cc2)NC(=O)[C@H](C(C)C)NC(=O)[C@H](CC(=O)O)NC(=O)[C@H](CC2CCOCC2)NC(=O)[C@H](CC2CCNCC2)NC(=O)CNC(=O)[C@H](C(C)(C)C)NC1=O [compound 506, Ac-hLeu-Y-C-Tbg-G-PipAla-ThpA-D-V-Aph(Cbm)-C-5FW-[(2S, 3S)beta-Me-Phe]-hydroxyVal-dLys(DOTA)-COOH] (Ac-[hLeu]YC[Tle]G[Ala(piperidin-4-yl)][Ala(4-THP)]DV[Phe(4-NHCONH2)]C[Trp(5-F)][X1][Val(3-OH)][dK](DOTA)-OH; disulfide 3-11)
